Reference: patent US7138361B2, “Herbicidal heterocycles” (E. I. du Pont de Nemours and Company, priority 2000, dated 2006)

Legend:
Type in all cases: in vivo
[1] = test system: Nightshade; experiment: Test C preemergence; settings: Rate 250 g/ha, visual evaluation after 12 to 14 days
[2] = test system: Sunflower; experiment: Test C preemergence; settings: Rate 125 g/ha, scale 0 to 100, 0 no effect, 100 complete control
[3] = test system: blackgrass (Alopecurus myosuroides); experiment: Test B postemergence; settings: 13 to 15 days
Method in brief: (§1)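 Greenhouse test: chemicals are formulated in a surfactant-containing non-phytotoxic solvent and applied either preemergence to planted seeds or postemergence to plants 2 to 18 cm tall. Response is rated visually versus controls after 13 to 15 days, 0 meaning no effect and 100 complete control.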

[4] = test system: wheat (Triticum aestivum); experiment: Test B postemergence; settings: 13 to 15 days
Method in brief: as §1

[5] = test system: barnyardgrass (Echinochloa crus-galli); experiment: Test B postemergence; settings: 13 to 15 days
Method in brief: as §1

[6] = test system: wild oat (Avena fatua); experiment: Test B postemergence; settings: 13 to 15 days
Method in brief: as §1

[7] = test system: crabgrass (Digitaria sanguinalis); experiment: Test B postemergence; settings: 13 to 15 days
Method in brief: as §1

[8] = test system: lambsquarters (Chenopodium album); experiment: Test B postemergence; settings: 13 to 15 days
Method in brief: as §1

[9] = test system: velvetleaf (Abutilon theophrasti); experiment: Test B postemergence; settings: 13 to 15 days
Method in brief: as §1

[10] = test system: giant foxtail (Setaria faberii); experiment: Test B postemergence; settings: 13 to 15 days
Method in brief: as §1

[11] = test system: corn (Zea mays); experiment: Test B postemergence; settings: 13 to 15 days
Method in brief: as §1

[12] = test system: morning glory (Ipomoea hederacea); experiment: Test B postemergence; settings: 13 to 15 days
Method in brief: as §1

[13] = test system: cocklebur (Xanthium strumarium); experiment: Test B postemergence; settings: 13 to 15 days
Method in brief: as §1

[14] = test system: pigweed (Amaranthus retroflexus); experiment: Test B postemergence; settings: 13 to 15 days
Method in brief: as §1

[15] = test system: Surinam grass (Brachiaria decumbens); experiment: Test B postemergence; settings: 13 to 15 days
Method in brief: as §1

[16] = test system: rice (Oryza saliva); experiment: Test C flooded paddy test; settings: for Rice plant response rating: scale 0 to 100, 0 no effect, 100 complete control
Method in brief: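 Ratings come from visual comparison with control plants after 12 to 14 days in the greenhouse. Each species was at the 2-leaf stage when the flooded paddy was treated. Scores run from 0, meaning no effect, to 100, meaning complete control.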

[17] = test system: barnyardgrass (Echinochloa crus-galli); experiment: Test B preemergence
Method in brief: as §1

[18] = test system: crabgrass (Digitaria sanguinalis); experiment: Test B preemergence
Method in brief: as §1

[19] = test system: lambsquarters (Chenopodium album); experiment: Test B preemergence
Method in brief: as §1

[20] = test system: velvetleaf (Abutilon theophrasti); experiment: Test B preemergence
Method in brief: as §1

[21] = test system: giant foxtail (Setaria faberii); experiment: Test B preemergence
Method in brief: as §1

[22] = test system: corn (Zea mays); experiment: Test B preemergence
Method in brief: as §1

[23] = test system: rice (Oryza saliva); experiment: Test B preemergence
Method in brief: as §1

[24] = test system: morning glory (Ipomoea hederacea); experiment: Test B preemergence
Method in brief: as §1

[25] = test system: cocklebur (Xanthium strumarium); experiment: Test B preemergence
Method in brief: as §1

[26] = test system: pigweed (Amaranthus retroflexus); experiment: Test B preemergence
Method in brief: as §1

[27] = test system: Surinam grass (Brachiaria decumbens); experiment: Test B preemergence
Method in brief: as §1

[28] = Rate 125 g/ha, scale 0 (no effect) to 100 (complete control)
[29] = Rate 500 g/ha, scale 0 to 100, 0 is no effect, 100 is complete control
[30] = flooded paddy test, Rate 62 g/ha, scale 0 to 100 (0 no effect, 100 complete control)
[31] = flooded paddy test, Rate 125 g/ha, scale 0 to 100 (0 no effect, 100 complete control)
[32] = Preemergence, Rate 500 g/ha, scale 0 to 100, 0 no effect, 100 complete control
[33] = preemergence, Rate 125 g/ha, scale 0 to 100, 0 no effect, 100 complete control
[34] = preemergence, Rate 125 g/ha, scale of 0 to 100 where 0 is no effect and 100 is complete control, 13 to 15 days

Compound: O=C1C(n2ccc(C3CC3)n2)CCN1c1cccc(C(F)(F)F)c1 (stereo not shown) [Compound 8]
- Plant response rating (0 to 100), Nightshade [1]: 0
- Plant response rating, Sunflower [2]: 0
- Plant response rating, Blackgrass [3, 28]: 0
- Plant response rating, Blackgrass [3, 29]: 0
- Plant response rating, Wheat [4, 28]: 0
- Plant response rating, Wheat [4, 29]: 0
- Plant response rating, Barnyardgrass [5, 28]: 0
- Plant response rating, Barnyardgrass [5, 29]: 0
- Plant response rating, Wild Oat [6, 28]: 0
- Plant response rating, Wild Oat [6, 29]: 0
- Plant response rating, Crabgrass [7, 28]: 0
- Plant response rating, Crabgrass [7, 29]: 0
- Plant response rating, Lambsquarters [8, 28]: 30
- Plant response rating, Lambsquarters [8, 29]: 50
- Plant response rating, Velvetleaf [9, 28]: 0
- Plant response rating, Velvetleaf [9, 29]: 0
- Plant response rating, Foxtail, Giant [10, 28]: 0
- Plant response rating, Foxtail, Giant [10, 29]: 0
- Plant response rating, Corn [11, 28]: 0
- Plant response rating, Corn [11, 29]: 0
- Plant response rating, Morningglory [12, 28]: 0
- Plant response rating, Morningglory [12, 29]: 0
- Plant response rating, Cocklebur [13, 28]: 0
- Plant response rating, Cocklebur [13, 29]: 10
- Plant response rating, Pigweed [14, 28]: 0
- Plant response rating, Pigweed [14, 29]: 10
- Plant response rating, Surinam grass [15, 28]: 0
- Plant response rating, Surinam grass [15, 29]: 0
- Plant response rating, Rice ([16]; Flooded Paddy, Rate 500 g/ha, scale 0 to 100): 60
- Plant response rating, Rice ([16]; Flooded Paddy, Rate 1000 g/ha, scale 0 to 100): 80
- Rice plant response rating ([16]; Flooded Paddy, Rate 250 g/ha): 60
- Plant response rating, Rice [16, 30]: 0
- Plant response rating, Rice [16, 31]: 0
- Plant response rating, Barnyardgrass [17, 32]: 70
- Plant response rating, Barnyardgrass [17, 33]: 0
- Plant response rating, Crabgrass [18, 32]: 100
- Plant response rating, Crabgrass [18, 33]: 30
- Plant response rating, Lambsquarters [19, 32]: 100
- Plant response rating, Lambsquarters [19, 33]: 0
- Plant response rating, Velvetleaf [20, 32]: 0
- Plant response rating, Velvetleaf [20, 33]: 0
- Plant response rating, Foxtail, Giant [21, 32]: 90
- Plant response rating, Foxtail, Giant [21, 33]: 40
- Plant response rating, Corn [22, 32]: 0
- Plant response rating, Corn [22, 33]: 0
- Plant response rating, Rice [23, 32]: 0
- Plant response rating, Rice [23, 33]: 0
- Plant response rating, Morningglory [24, 32]: 0
- Plant response rating, Morningglory [24, 33]: 0
- Plant response rating, Cocklebur [25, 32]: 0
- Plant response rating, Cocklebur [25, 33]: 0
- Plant response rating, Pigweed [26, 32]: 100
- Plant response rating, Pigweed [26, 33]: 20
- Plant response rating, Surinam grass [27, 32]: 70
- Plant response rating, Surinam grass [27, 33]: 20

Compound: CC(C)(C)c1ccn(C2CCN(c3cccc(OC(F)(F)F)c3)C2=O)n1 (stereo not shown) [Compound 49]
- Plant response rating (0 to 100), Nightshade [1]: 50
- Plant response rating, Sunflower [2]: 20
- Plant response rating, Blackgrass [3, 28]: 0
- Plant response rating, Blackgrass [3, 29]: 60
- Plant response rating, Wheat [4, 28]: 0
- Plant response rating, Wheat [4, 29]: 0
- Plant response rating, Barnyardgrass [5, 28]: 0
- Plant response rating, Barnyardgrass [5, 29]: 80
- Plant response rating, Wild Oat [6, 28]: 0
- Plant response rating, Wild Oat [6, 29]: 30
- Plant response rating, Crabgrass [7, 28]: 0
- Plant response rating, Crabgrass [7, 29]: 40
- Plant response rating, Lambsquarters [8, 28]: 30
- Plant response rating, Lambsquarters [8, 29]: 50
- Plant response rating, Velvetleaf [9, 28]: 0
- Plant response rating, Velvetleaf [9, 29]: 40
- Plant response rating, Foxtail, Giant [10, 28]: 0
- Plant response rating, Foxtail, Giant [10, 29]: 0
- Plant response rating, Corn [11, 28]: 0
- Plant response rating, Corn [11, 29]: 0
- Plant response rating, Morningglory [12, 28]: 0
- Plant response rating, Morningglory [12, 29]: 30
- Plant response rating, Cocklebur [13, 28]: 0
- Plant response rating, Cocklebur [13, 29]: 30
- Plant response rating, Pigweed [14, 28]: 30
- Plant response rating, Pigweed [14, 29]: 30
- Plant response rating, Surinam grass [15, 28]: 0
- Plant response rating, Surinam grass [15, 29]: 90
- Rice plant response rating ([16]; Flooded Paddy, Rate 250 g/ha): 30
- Rice plant response rating ([16]; Flooded Paddy, Rate 500 g/ha): 90
- Plant response rating, Rice [16, 30]: 20
- Plant response rating, Barnyardgrass [17, 32]: 100
- Plant response rating, Barnyardgrass [17, 34]: 100
- Plant response rating, Crabgrass [18, 32]: 0
- Plant response rating, Crabgrass [18, 34]: 0
- Plant response rating, Lambsquarters [19, 32]: 100
- Plant response rating, Lambsquarters [19, 34]: 100
- Plant response rating, Velvetleaf [20, 32]: 0
- Plant response rating, Velvetleaf [20, 34]: 0
- Plant response rating, Foxtail, Giant [21, 32]: 90
- Plant response rating, Foxtail, Giant [21, 34]: 0
- Plant response rating, Corn [22, 32]: 0
- Plant response rating, Corn [22, 34]: 0
- Plant response rating, Rice [23, 32]: 20
- Plant response rating, Rice [23, 34]: 0
- Plant response rating, Morningglory [24, 32]: 30
- Plant response rating, Morningglory [24, 34]: 0
- Plant response rating, Cocklebur [25, 32]: 0
- Plant response rating, Cocklebur [25, 34]: 0
- Plant response rating, Pigweed [26, 32]: 100
- Plant response rating, Pigweed [26, 34]: 100
- Plant response rating, Surinam grass [27, 32]: 0
- Plant response rating, Surinam grass [27, 34]: 0

Compound: O=C1C(n2ccc(C3CCC3)n2)SCN1c1cccc(C(F)(F)F)c1 (stereo not shown) [Compound 37]
- Plant response rating (0 to 100), Nightshade [1]: 0
- Plant response rating, Sunflower [2]: 0
- Plant response rating, Blackgrass [3, 28]: 0
- Plant response rating, Blackgrass [3, 29]: 0
- Plant response rating, Wheat [4, 28]: 0
- Plant response rating, Wheat [4, 29]: 0
- Plant response rating, Barnyardgrass [5, 28]: 80
- Plant response rating, Barnyardgrass [5, 29]: 100
- Plant response rating, Wild Oat [6, 28]: 0
- Plant response rating, Wild Oat [6, 29]: 0
- Plant response rating, Crabgrass [7, 28]: 0
- Plant response rating, Crabgrass [7, 29]: 100
- Plant response rating, Lambsquarters [8, 28]: 0
- Plant response rating, Lambsquarters [8, 29]: 90
- Plant response rating, Velvetleaf [9, 28]: 0
- Plant response rating, Velvetleaf [9, 29]: 0
- Plant response rating, Foxtail, Giant [10, 28]: 60
- Plant response rating, Foxtail, Giant [10, 29]: 80
- Plant response rating, Corn [11, 28]: 0
- Plant response rating, Corn [11, 29]: 20
- Plant response rating, Morningglory [12, 28]: 20
- Plant response rating, Morningglory [12, 29]: 40
- Plant response rating, Cocklebur [13, 28]: 10
- Plant response rating, Cocklebur [13, 29]: 30
- Plant response rating, Pigweed [14, 28]: 20
- Plant response rating, Pigweed [14, 29]: 90
- Plant response rating, Surinam grass [15, 28]: 0
- Plant response rating, Surinam grass [15, 29]: 0
- Rice plant response rating ([16]; Flooded Paddy, Rate 250 g/ha): 30
- Rice plant response rating ([16]; Flooded Paddy, Rate 500 g/ha): 90
- Plant response rating, Rice [16, 30]: 0
- Plant response rating, Rice [16, 31]: 0
- Plant response rating, Barnyardgrass [17, 32]: 100
- Plant response rating, Barnyardgrass [17, 33]: 0
- Plant response rating, Crabgrass [18, 32]: 100
- Plant response rating, Crabgrass [18, 33]: 0
- Plant response rating, Lambsquarters [19, 32]: 100
- Plant response rating, Lambsquarters [19, 33]: 100
- Plant response rating, Velvetleaf [20, 32]: 0
- Plant response rating, Foxtail, Giant [21, 32]: 100
- Plant response rating, Foxtail, Giant [21, 33]: 40
- Plant response rating, Corn [22, 32]: 0
- Plant response rating, Corn [22, 33]: 0
- Plant response rating, Rice [23, 32]: 0
- Plant response rating, Morningglory [24, 32]: 0
- Plant response rating, Cocklebur [25, 33]: 0
- Plant response rating, Pigweed [26, 32]: 100
- Plant response rating, Surinam grass [27, 32]: 0
- Plant response rating, Surinam grass [27, 33]: 0
